Measurements from patent US20190083436A1, “METHODS OF DIAGNOSING CANCER” (AGENCY FOR SCIENCE, TECHNOLOGY AND RESEARCH, priority 2016, published 2019).

Tests used:
HCC cell lines = assay: Real-time cell proliferation (xCELLigence) of liver cancer cell lines treated with compounds; assay type: cell-based
Experimental: Cell Culture. Cell lines were obtained [Huh7 from Japanese Collection of Research Bioresources; Hep3B, SNU182, SNU387, SNU398, and SNU449 from ATCC; and Morris Hepatoma 3924a from German Cancer Research Center Tumor Collection] and not further verified. Only cell stocks that had been verified mycoplasma-negative within the prior 9 months were used. All cell lines were maintained in RPMI 1640 with 10% FBS and 1% Pen Strep (Gibco) and grown in a 37° C. humidified incubator with 5% CO2. Real-time cell growth measurements were taken on an xCELLigence RTCA SP (Acea) at 15-minute intervals. For compound treatment growth curves, cells were seeded in quadruplicate at 1,250, 2,500 or 5,000 cells per well and normalized 12 hours later (time 0 hours), immediately prior to changing half of the media to add compounds or vehicle. […] For immunoblots, cells were seeded in 10 cm dishes and allowed to grow for at least 24 hours. At approximately 80% confluence the media was changed to include indicated amounts of compound or vehicle (DMSO) and whole cell lysates were harvested 2 hours later. […] Results shown are one of at least three independent experiments.

mTOR = assay: Immunofluorescence of mTOR/LAMP2 co-localization in Hep3B cells; assay type: cell-based; conditions: treated 2 hours
Source text: Arrows highlight the co-localization of mTOR and lysosomal marker LAMP2. […] Student's t-test, *P<0.05, compared to respective controls.

mTOR pathway = assay: Immunoblots of mTOR pathway activity after 2 hours of compound treatment; assay type: cell-based; conditions: HCC cell lines, 2 hours of treatment
Experimental: All cell lines were maintained in RPMI 1640 with 10% FBS and 1% Pen Strep (Gibco) and grown in a 37° C. humidified incubator with 5% CO2. […] For immunoblots, cells were seeded in 10 cm dishes and allowed to grow for at least 24 hours. At approximately 80% confluence the media was changed to include indicated amounts of compound or vehicle (DMSO) and whole cell lysates were harvested 2 hours later. […] For immunoblots, cells were seeded in 10 or 15 cm dishes, and were split or received media change every 3-4 days to maintain a doxycycline concentration of 250 μg/mL. After 10 days, cells were harvested as whole cell lysates, or as purified mitochondrial fractions using an isolation kit (Thermo Fisher). Results shown are one of at least three independent experiments. […] For immunoblots, cells were seeded into 10 cm or 15 cm dishes and harvested 5 days later as whole cell lysates or purified mitochondrial fractions, when the cells were approximately 80% confluent.
Antibodies were obtained from Cell Signaling [Cleaved Caspase 3 (9664), Cox IV (4844), p-Histone H2A.X (9718), S6 (2317), p-S6 (4858), S6K (9202), p-S6K (9234)], Santa Cruz [Bckdha (sc-67200), Bckdhb (sc160974), Gapdh (sc-32233)], Bethyl [p-Bckdha (A304-672A)], Sigma [Tubulin (T5168), Acads (HPA022271)], and Abcam [Acadsb (ab99951), Bckdk (ab125389 and ab151297), Ki67 (ab15580)]. […]

DEN-induced liver tumors = assay: DEN-injected mice fed BCAA-supplemented diets with Fenofibrate or BT2; assay type: in vivo; conditions: 8 months after DEN injection; LFD+BCAA or HFD+BCAA with 0.05% Fenofibrate or 0.02% BT2
Source text: Analysis of mice 8 months after DEN injection, fed either a low fat diet (LFD, 10% kcal from fat) or high fat diet (HFD, 45% kcal from fat) with normal or high (+150%) levels of BCAAs. […] Hazard ratios (with 95% confidence intervals) based on BCAA intake, adjusted for age, sex, race, total kcal, usual dietary intake, diet change, physical activity, intentional weight loss, waist circumference, smoking, education, and prior diagnosis of cancer, diabetes and cardiovascular disease, additionally adjusted for % kcal from other macronutrients. […] Substitution analysis comparing change in risk when replacing BCAAs with carbohydrate or fat, with the same adjustments as HR2 except total kcal and % kcal from nonBCAA protein. Data are presented as hazard ratio (solid line) with 95% confidence interval (shaded area). […] Student's t-test, *P<0.05 vs. LFD, § P<0.05 vs HFD. †P<0.05 vs LFD+BCAA. ‡P<0.05 vs HFD+BCAA. […]
All animal studies were approved by the Institutional Animal Care and Use Committee at A*STAR. […] For rat DEN model, DEN was given to 10 week-old rats via drinking water containing 100 mg/L DEN for up to 4 months, and control rat livers from age-matched rats were analyzed. […] Livers were resected, measured by electronic calipers and snap frozen in liquid nitrogen. […] Body weights were measured weekly and prior to sacrifice lean and fat mass were measured by an EchoMRI Body Composition Analyzer. […]

Structure (SMILES)	cell proliferation (real-time proliferation curves, divisions per day) (HCC cell lines; panel of HCC cell lines, rates over 48-hour period)	mTOR subcellular localization (co-localization of mTOR and lysosomal marker LAMP2) (mTOR)	mTOR activity (immunoblots) (mTOR pathway)	tumor promoting effects of BCAA-supplemented diets (number of tumors ≥3 mm, size of largest tumor) (DEN-induced liver tumors)	sensitivity of HCC cell lines to mTOR inhibitors (HCC cell lines; all HCC cell lines examined, proliferation and mTOR pathway immunoblots)
O=C(O)c1sc2cc(Cl)ccc2c1Cl [BT2, 3,6-dichlorobenzo[b]thiophene-2-carboxylic acid]	potent dose-dependent decrease in cell proliferation	no significant co-localization was observed	broad loss of mTOR activity	able to reverse the tumor promoting effects	–
CC(C)OC(=O)C(C)(C)Oc1ccc(C(=O)c2ccc(Cl)cc2)cc1 [Fenofibrate, propan-2-yl 2-[4-(4-chlorobenzoyl)phenoxy]-2-methylpropanoate]	–	no significant co-localization was observed	–	able to reverse the tumor promoting effects	–
CCC(=O)N1CCN(c2ccc(-n3c(=O)ccc4cnc5ccc(-c6cnc7ccccc7c6)cc5c43)cc2C(F)(F)F)CC1 [Torin 1]	–	–	–	–	at least partially sensitive
